Source: patent US9521845B2, “Beta-lactones as antibacterial agents” (LUDWIG-MAXIMILIANS-UNIVERSITÄT-MÜNCHEN, priority 2008, dated 2016)

Legend:
[1] = system: proteolysis abilities of Staphylococcus aureus; assay: Milk agar plate-based proteolysis assay; type: cell-based
Method: FIG. 6: Milk agar plate-based assay illustrating that beta-lactones have an effect on the proteolysis abilities of Staphylococcus aureus. 2.5 μL of S. aureus LB dilution (OD600=0.13 corresponding to approx. 1×10^8 cfu/ml) and 2.5 μL DMSO/beta-lactone in DMSO were applied on Whatman Cards placed on 1% skim milk LB agar plates and incubated at 37° C. over night. A) Direct comparison of beta-lactones as shown in FIG. 2 at a total amount of 250 nmol applied on Whatman Cards. B) Dose down with beta-lactones D3, E2 and G2 at applied concentrations of 100 mM, 50 mM, 25 mM, 12.5 mM, 6.25 mM and 0 mM (corresponding to total amounts of 250 nmol, 125 nmol, 62.5 nmol, 31.3 nmol, 15.6 nmol and 0 nmol, respectively). C) Proteolysis zone size plotted against the total amount of the respective beta-lactone.
2.5 μL of S. aureus LB dilution (OD600=0.13 corresponding to approx. 1×10^8 cfu/ml) and 2.5 μL DMSO/beta-lactone in DMSO were applied on Whatman Cards placed on 1% skim milk LB agar plates and incubated at 37° C. over night. FIG. 6A directly compares the β-lactones at a total amount of 250 nmol applied on Whatman Cards. […] For D3 and E2 almost no proteolysis is observed down to a total amount of 125 nmol of the respective beta-lactone. FIG. 6C illustrates that the proteolysis zone size plotted against the total amount of beta-lactone visualizes the strong effects particularly of D3 and E2.

[2] = molecular target: T1, Aldehyde dehydrogenase B (ADB) (Escherichia coli, UniProt P37685); assay: ABPP labeling of E. coli cytosol; type: binding; conditions: 100 nM probe concentration, no other off targets
T1 construct: endogenous in cells; host or cells: Escherichia coli K12 lysate, cytosol fraction
Method: To estimate the strength of probe interactions with proteins in the proteome, we compared the reactivity profiles of selected beta-lactones across a broad concentration range from 10 μM to 5 nM.
Proteome samples were adjusted to a final concentration of 1 mg protein/mL by dilution in PBS prior to probe labeling. Experiments for visualization by 1D SDS-PAGE were carried out in 43 μL total volume and those for affinity enrichment in 1892 μL total volume, such that once CC reagents were added, the total reaction volume was 50 μL and 2 mL, respectively. Reactions were initiated by addition of the probe and allowed to incubate for 60 min at room temperature. For heat controls the proteome was denatured with 1 μL of 43% SDS at 95° C. for 6 min and cooled to room temperature before the probe was applied. Following incubation, reporter tagged-azide reagents (13 μM rhodamine-azide for analytical or 20 μM rhodamine-biotin-azide for preparative scale) were added followed by 1 mM TCEP and 100 μM ligand. Samples were gently vortexed and the cycloaddition initiated by the addition of 1 mM CuSO4. The reactions were incubated at room temperature for 1 h (Speers, J. Amer. Chem. Soc. 125 (2003), 4686).

[3] = system: LLO haemolytic activity of L. monocytogenes EGDe; assay: LLO haemolytic activity testing of culture supernatants; type: cell-based, Listeria monocytogenes EGDe; conditions: sheep red blood cells
Method: Overnight cultures of L. monocytogenes EGDe were harvested by centrifugation and resuspended in an equal volume of fresh BHB medium. In 1.5 mL Eppendorf tubes, 400 μL of BHB medium were inoculated with 4 μL of the resuspended Listeria culture and 4 μL of a corresponding beta-lactone stock in DMSO. The final concentrations were 800 μM, 400 μM, 200 μM, 100 μM and DMSO as control. The amount of DMSO in all tests was 1% of the medium. After mixing, the test tubes were incubated under continuous shaking at 200 rpm at 37° C. for 16 h. Then, cells were centrifuged and the supernatants filtered sterile by passing them through a 0.2 μm pore size filter. Haemolytic activity of LLO in the culture supernatants was quantitatively investigated according to a method described in J. Food Safety 1998, 18: 197-203 (incorporated herein by reference) with some modifications. In Nunclon™ 96-well plates with round shaped wells 100 μL of serial dilutions of the supernatants in PBS were added per well and incubated with 100 μL of 3% SRBC (sheep red blood cells) resuspended in PBS for 15 min at 37° C. under gentle shaking. The 96-well plates were centrifuged at 600 rpm for 5 min and the minimum dilution at which intact blood cells began to form a pellet was recorded. Controls with no lactone were set 100%. Buffer only controls and pure BHB medium yielded no haemolysis.

ClpP = molecular target: T2, ClpP (Listeria monocytogenes serovar 1/2a, UniProt Q9RQI6); assay: In vivo labeling of Listeria proteomes; type: cell-based; conditions: living L. monocytogenes EGDe, cytosol, 2 h incubation
T2 construct: endogenous in cells; host or cells: living Listeria monocytogenes EGDe, stationary phase
Method: For analytical and preparative in vivo studies, Listeria were grown to stationary phase and harvested by centrifugation at 4,000 rpm 1 h after entrance in the stationary phase (1.5 ml for analytical and 15 ml for preparative studies). The cell pellets were washed once with PBS and resuspended in 100 μL and 500 μL PBS for analytical and preparative studies, respectively. The cell suspensions were incubated for 2 h with varying concentrations of probe at room temperature. Probes were applied from DMSO stocks whereby DMSO never exceeded 2% in the final solution. For preparative experiments, 50 μM of the probes was added to the cells resuspended in PBS. After incubation, the cells were washed thoroughly three times with PBS to remove excess probe from the supernatant. Subsequently the cells were lysed in 100 μL (500 μL) PBS by sonication with a Bandelin Sonopuls with 3×20 sec. pulsed at 70% max. power. For analytical experiments 44 μL proteome were used to append a reporter tag via CC, such that once CC reagents were added, the total reaction volume was 50 μL. In preparative purposes the total volume of 500 μL it was consumed per experiment. Reporter tagged-azide reagents (13 μM rhodamine-azide for analytical or 20 μM rhodamine-biotin-azide for preparative scale) were added followed by 1 mM TCEP and 100 μM ligand. Samples were gently vortexed and the cycloaddition initiated by the addition of 1 mM CuSO4. The reactions were incubated at room temperature for 1 h. For analytical gel electrophoresis, 50 μL 2×SDS loading buffer were added and 50 μL applied on the gel. Fluorescence was recorded in a Fujifilm Las-3000 Fluoreszenz Darkbox with a Fujinon VRF 43LMD Lens, 605DF40 filter and 520 nm EPI excitation wavelength.

T1 sequence (P37685 whole entry): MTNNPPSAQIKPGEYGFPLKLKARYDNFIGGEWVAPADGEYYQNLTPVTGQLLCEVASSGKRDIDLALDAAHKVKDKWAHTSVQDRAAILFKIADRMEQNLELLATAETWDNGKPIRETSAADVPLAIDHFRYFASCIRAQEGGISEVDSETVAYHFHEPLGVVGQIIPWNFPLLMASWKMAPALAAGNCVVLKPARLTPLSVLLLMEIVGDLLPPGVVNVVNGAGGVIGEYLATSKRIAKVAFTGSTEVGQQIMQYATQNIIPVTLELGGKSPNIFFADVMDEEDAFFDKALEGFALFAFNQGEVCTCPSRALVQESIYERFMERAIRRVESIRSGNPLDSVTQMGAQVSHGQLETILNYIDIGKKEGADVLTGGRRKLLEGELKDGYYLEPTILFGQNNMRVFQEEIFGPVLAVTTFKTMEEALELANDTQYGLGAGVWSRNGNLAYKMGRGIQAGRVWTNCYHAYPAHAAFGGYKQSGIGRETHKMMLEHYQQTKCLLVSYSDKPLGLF
T2 sequence (Q9RQI6 whole entry): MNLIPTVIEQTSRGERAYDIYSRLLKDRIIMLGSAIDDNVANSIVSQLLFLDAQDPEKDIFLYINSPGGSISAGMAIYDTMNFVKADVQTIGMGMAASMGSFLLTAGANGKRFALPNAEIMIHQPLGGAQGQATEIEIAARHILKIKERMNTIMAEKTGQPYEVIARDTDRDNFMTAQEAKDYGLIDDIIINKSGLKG

**Q.** What does the source list for `C#CCCCC1OC(=O)C1CCCCCCCC=C` (stereo not drawn) [D3, trans-3-(8-nonen-1-yl)-4-(4-pentyn-1-yl)oxetan-2-one]?
**A.** total amount down to which almost no proteolysis is observed ([1]; dose down 250-15.6 nmol): 125 nmol; proteolytic activity of S. aureus ([1]; total amount of 250 nmol applied on Whatman Cards, 1% skim milk LB agar, 37° C. over night): strongly reduce; ADB labeling preference [2]: strong preference; EC50 ([3]; Listeria monocytogenes, Erythrocyte, cultures grown 16 h with lactone, read-out: EC50 of reduction of LLO haemolytic activity): 100 µM; reduction (inhibition) of haemolytic activity ([3]; cultures grown 16 h with 100-800 μM lactone): 80%; ClpP labeling (probe potency ranking) (ClpP): most potent probes
